Measurements from US11795163B2, “Compound for inhibiting nicotinamide phosphoribosyltransferase and composition containing same” (CHECKMATE THERAPEUTICS INC., priority 2016, dated 2023).
One block for each molecule: values may come before it.

Columns and labels:
liver cell (THLE-3) = experiment: Toxicity evaluation in normal cell line, cell viability; format: cell-based; conditions: for IC50: THLE3, THLE-3, FIG. 26; for toxicity: THLE-3, very high concentrations of 50 μM
liver cell (THLE-2) = experiment: Toxicity assessment in normal cell line, cell viability; format: cell-based; conditions: for IC50: Homo sapiens, THLE-2, FIG. 25; for toxicity: THLE-2, very high concentrations of 50 μM
H322 = experiment: Therapeutic effect of cancer cell line, IC50; format: cell-based; conditions: NCI-H322; H322, NAPRT expression negative
H1975 = experiment: Therapeutic effect of cancer cell line, IC50; format: cell-based; conditions: Homo sapiens, NCI-H1975; H1975, NAPRT expression positive
H2122 = experiment: Therapeutic effect of cancer cell line, IC50; format: cell-based; conditions: Homo sapiens, NCI-H2122; H2122, NAPRT expression positive
HBEC30 = experiment: Therapeutic effect of cancer cell line, IC50; format: cell-based; conditions: HBEC30, NAPRT expression positive
H1115 = experiment: Therapeutic effect of cancer cell line, IC50; format: cell-based; conditions: H1115, NAPRT expression negative
H661 = experiment: Therapeutic effect of cancer cell line, IC50; format: cell-based; conditions: Homo sapiens, NCI-H661; H661, NAPRT expression negative
H322 cell line = experiment: Toxic mechanism in cancer cell lines: intracellular NAD, ATP and total protein; format: cell-based; conditions: H322, 2.5 μM
Description: To investigate the direct effect of the compound according to the present invention on the catalytic activity of NamPT enzyme, after treating H322 cell line with 2.5 μM of the compound of the Synthesis Example 4, the intracellular NAD, ATP and total protein was measured, with the results depicted in FIG. 20.

H1993 = experiment: Therapeutic effect of cancer cell line, IC50; format: cell-based; conditions: Homo sapiens, NCI-H1993; H1993, NAPRT expression positive
H1299 = experiment: Therapeutic effect of cancer cell line, IC50; format: cell-based; conditions: Homo sapiens, NCI-H1299; H1299, NAPRT expression positive
H2030 = experiment: Therapeutic effect of cancer cell line, IC50; format: cell-based; conditions: Homo sapiens, NCI-H2030; H2030, NAPRT expression positive
[1] = Microsome stability evaluation; format: in vitro ADME, mouse; conditions: after 30 minutes, 1 μM compound, 0.3 mg/ml microsomal protein, 1 mM NADPH
Description: (§1) Metabolic stability was assessed using human liver microsomes and mouse liver microsomes. Specifically, pooled male mouse liver microsomes (in-house preparation per SOP), pooled human liver microsomes (XENOTECH; […] The reaction was stopped by addition of acetonitrile ([…]) containing the same volume of internal standard. The precipitated proteins were removed by centrifugation and the supernatant was analyzed by LC/MS-MS method. […] Residual % parent compound=(peak area at time x/peak area at TO)×100.

[2] = Microsome stability evaluation; format: in vitro ADME, human; conditions: after 30 minutes, 1 μM compound, 0.3 mg/ml microsomal protein, 1 mM NADPH
Description: as §1

hERG channel = hERG channel (Homo sapiens, UniProt Q12809); experiment: hERG screening by fluorescence polarization with red fluorescent hERG channel ligand tracer; format: binding; conditions: probe high affinity red fluorescent hERG channel ligand tracer, mean±standard deviation, read-out: % inhibition capacity
Sequence of hERG channel (Q12809 whole entry): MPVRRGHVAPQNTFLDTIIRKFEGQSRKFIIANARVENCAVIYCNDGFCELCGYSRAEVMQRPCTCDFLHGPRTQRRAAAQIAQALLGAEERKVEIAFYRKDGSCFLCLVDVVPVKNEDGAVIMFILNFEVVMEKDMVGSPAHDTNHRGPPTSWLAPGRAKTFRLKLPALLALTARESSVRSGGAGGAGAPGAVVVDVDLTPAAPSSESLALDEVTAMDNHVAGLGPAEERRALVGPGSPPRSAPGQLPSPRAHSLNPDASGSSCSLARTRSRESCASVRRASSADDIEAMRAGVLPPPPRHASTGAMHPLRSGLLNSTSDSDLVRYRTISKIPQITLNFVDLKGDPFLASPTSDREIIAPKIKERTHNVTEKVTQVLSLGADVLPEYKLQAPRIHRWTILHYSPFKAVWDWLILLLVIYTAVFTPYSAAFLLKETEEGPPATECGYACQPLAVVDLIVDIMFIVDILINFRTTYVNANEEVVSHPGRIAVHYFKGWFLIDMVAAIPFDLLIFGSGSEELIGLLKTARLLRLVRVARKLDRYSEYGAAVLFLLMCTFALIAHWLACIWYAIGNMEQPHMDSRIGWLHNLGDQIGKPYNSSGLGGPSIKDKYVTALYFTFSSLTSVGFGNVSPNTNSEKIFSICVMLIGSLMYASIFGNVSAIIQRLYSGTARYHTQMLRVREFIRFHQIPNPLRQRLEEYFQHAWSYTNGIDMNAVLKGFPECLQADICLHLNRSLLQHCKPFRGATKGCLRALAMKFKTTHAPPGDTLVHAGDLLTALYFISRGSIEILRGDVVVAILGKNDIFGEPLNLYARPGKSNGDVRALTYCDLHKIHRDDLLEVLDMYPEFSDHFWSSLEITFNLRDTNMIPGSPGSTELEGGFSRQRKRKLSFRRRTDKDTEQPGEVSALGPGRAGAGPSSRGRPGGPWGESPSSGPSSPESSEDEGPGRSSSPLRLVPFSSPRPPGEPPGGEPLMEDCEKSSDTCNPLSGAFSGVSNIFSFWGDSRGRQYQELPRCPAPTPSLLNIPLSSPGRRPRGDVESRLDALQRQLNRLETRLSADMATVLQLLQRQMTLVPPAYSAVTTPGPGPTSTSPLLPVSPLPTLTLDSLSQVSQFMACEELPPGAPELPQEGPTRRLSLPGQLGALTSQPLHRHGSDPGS

hERG K+ channel = hERG K+ channel (Homo sapiens, UniProt Q12809); experiment: hERG K+ channel activity evaluation, patch clamp
Sequence of hERG K+ channel (Q12809 whole entry): as above

[3] = test system: retinal pigment epithelium cell (RPE); experiment: Toxicity assessment in normal cell line, cell viability; format: cell-based; conditions: high concentrations
Primary cardiomyocyte = experiment: as above; format: cell-based; conditions: high concentrations
[4] = test system: H322, H661, H1155, H1993, H1975, H2030, H1299, H2122 and HBEC30; experiment: Viability of various cancer cell lines by concentration (NAPRT positive vs negative); format: cell-based

Compound: O=C(NCc1ccc(S(=O)(=O)c2cc(F)cc(F)c2)cc1)c1ccc2nccn2c1 [GNE617, N-(4-((3,5-difluorophenyl)sulfonyl)benzyl)imidazo[1,2-a]pyridine-6-carboxamide, reference compound]
IC50 (liver cell (THLE-3)): ~0.05 µM | IC50 (liver cell (THLE-2)): ~0.05 µM

Compound: O=C(NCc1ccc(-c2nc3ncccc3o2)cc1)c1cccnc1 [B1472]
IC50 (H322): 0.3 µM

Compound: O=C(NCc1ccc(-c2nc3cnccc3o2)cc1)c1cccnc1 [B1471, N-(4-(oxazolo[4,5-c]pyridin-2-yl)benzyl)nicotinamide]
IC50 (H1975): > 100 µM | IC50 (H2122): > 100 µM | IC50 (HBEC30): > 100 µM | IC50 (H1115): > 1 µM | IC50 (H661): 0.7 µM | amount of ATP (H322 cell line): remarkably decreased | amount of NAD (H322 cell line): remarkably decreased | total amount of protein compared to the negative control (H322 cell line): decrease | IC50 (H322): < 0.024 µM | IC50 (H1993): > 100 µM | IC50 (H1299): 100 µM | IC50 (H2030): > 100 µM

Compound: O=C(NCc1ccc(-c2nc3ccccc3s2)cc1)c1cccnc1 [B1469]
IC50 (H322): 0.06 µM

Compound: O=C(Nc1ccc(C(=O)OC2CCCCC2)cc1)c1cccnc1 [B1477]
toxicity (liver cell (THLE-3)): little toxicity | IC50 (H1975): > 100 µM | IC50 (H2122): 31.6 µM | IC50 (HBEC30): > 100 µM | IC50 (H1115): > 1 µM | IC50 (H661): > 1 µM | IC50 (H322): < 0.024 µM | IC50 (H1993): < 100 µM | IC50 (H1299): < 100 µM | IC50 (H2030): < 100 µM | toxicity (liver cell (THLE-2)): little toxicity

Compound: Cc1ccc2oc(-c3ccc(CNC(=O)c4cccnc4)cc3)nc2c1 [A4275]
IC50 (H1115): < 0.3 µM | IC50 (H661): < 0.3 µM | IC50 (H322): 0.03 µM

Compound: Cc1ccc2nc(-c3ccc(CNC(=O)c4ccccc4)cc3)oc2c1 [A4303]
IC50 (H1115): 10 µM | IC50 (H661): 10 µM | IC50 (H322): 10 µM

Compound: CCc1nnc2sc(-c3ccc(CNC(=O)c4cccnc4)cc3)nn12 [B1423]
IC50 (H1975): > 100 µM | IC50 (H2122): > 100 µM | IC50 (HBEC30): > 100 µM | IC50 (H1115): 1 µM | IC50 (H661): > 1 µM | IC50 (H322): 0.6 µM | IC50 (H1993): > 100 µM | IC50 (H1299): > 100 µM | IC50 (H2030): > 100 µM

Compound: O=C(NCc1ccc(-c2nc3ccc(Cl)cc3o2)cc1)c1cccnc1 [A4266, N-(4-(6-chlorobenzo[d]oxazol-2-yl)benzyl)nicotinamide]
Mouse(%) parent compound remaining [1]: 89.3 ± 3.12% | inhibition at 10 µM (hERG channel): < 1% | IC50 (H1115): 0.03 µM | IC50 (H661): 0.1 µM | IC50 (H322): 0.03 µM | IC50 (hERG K+ channel): > 100 µM | Human(%) parent compound remaining [2]: >99%

Compound: O=C(NCc1ccc(-c2nc3ccc([N+](=O)[O-])cc3o2)cc1)c1cccnc1 [A4261]
IC50 (H1115): < 0.1 µM | IC50 (H661): < 0.3 µM | IC50 (H322): 0.03 µM

Compound: CCc1ccc2nc(-c3ccc(CNC(=O)c4cccnc4)cc3)oc2c1 [A4302]
IC50 (H1115): < 0.3 µM | IC50 (H661): 0.1 µM | IC50 (H322): 0.1 µM

Compound: CC(C)OC(=O)c1ccc(NC(=O)c2cccnc2)cc1 [B1416]
IC50 (H322): < 1.56 µM

Compound: Cc1nnc2sc(-c3ccc(CNC(=O)c4cccnc4)cc3)nn12 [B1468]
toxicity (liver cell (THLE-3)): little toxicity | IC50 (H1975): > 100 µM | IC50 (H2122): > 100 µM | IC50 (HBEC30): > 100 µM | IC50 (H1115): 3.16 µM | IC50 (H661): > 1 µM | IC50 (H322): < 0.024 µM | IC50 (H1993): > 100 µM | IC50 (H1299): > 100 µM | IC50 (H2030): > 100 µM | toxicity (liver cell (THLE-2)): little toxicity

Compound: CC(C)c1ccc2oc(-c3ccc(NC(=O)c4cccnc4)cc3)nc2c1 [B1479]
IC50 (H322): 5 µM

Compound: COC(=O)c1ccc(NC(=O)c2cccnc2)cc1 [B1380]
IC50 (H2122): > 12.5 µM | IC50 (HBEC30): > 12.5 µM | IC50 (H661): 2.5 µM | IC50 (H322): 6.25 µM | IC50 (H1993): > 12.5 µM

Compound: COc1ccc2oc(-c3ccc(CNC(=O)c4cccnc4)cc3)nc2c1 [B1474]
IC50 (H322): 0.05 µM

Compound: O=C(/C=C/c1cccnc1)NCCCCC1CCN(C(=O)c2ccccc2)CC1 [FK866, N-[4-(1-benzoyl-4-piperidinyl)butyl]-3-(3-pyridinyl)-2E-propenamide]
cytotoxicity (cell viability) [3]: unpredictable cytotoxicity | IC50 (liver cell (THLE-3)): ~0.05 µM | Mouse(%) parent compound remaining [1]: 10.26 ± 0.91% | cytotoxicity (cell viability) (Primary cardiomyocyte): unpredictable cytotoxicity | Human(%) parent compound remaining [2]: 25.48 ± 1.45% | difference in LD50 values between the NAPRT positive cell line and the negative cell line [4]: approximately 10 times | IC50 (liver cell (THLE-2)): ~0.05 µM | cytotoxicity (cell viability) (liver cell (THLE-2); THLE-2, high concentrations): unpredictable cytotoxicity

Compound: CC(C)(C)c1ccc2nc(-c3ccc(CNC(=O)c4cccnc4)cc3)oc2c1 [A4263]
IC50 (H1115): < 0.3 µM | IC50 (H661): 1 µM | IC50 (H322): < 0.03 µM

Compound: O=C(NCc1ccc(-c2nc3cc(-c4ccccc4)ccc3o2)cc1)c1cccnc1 [A4262]
IC50 (H1115): < 0.1 µM | IC50 (H661): 30 µM | IC50 (H322): 0.03 µM

Compound: O=C(NCc1ccc(-c2nc3cc4ccccc4cc3o2)cc1)c1cccnc1 [A4265, N-(4-(naphtho[2,3-d]oxazol-2-yl)benzyl)nicotinamide]
Mouse(%) parent compound remaining [1]: 78.24 ± 6.49% | inhibition at 10 µM (hERG channel): 7.44 ± 3.12% | IC50 (H1115): 0.01 µM | IC50 (H661): < 0.03 µM | IC50 (H322): 0.003 µM | IC50 (hERG K+ channel): > 100 µM | Human(%) parent compound remaining [2]: 81.11 ± 4.76%

Compound: O=C(NCc1ccc(-c2nc3ccccc3o2)cc1)c1cccnc1 [B1470]
IC50 (H322): 0.06 µM

Now from value to molecule:

IC50 (H322): 10 µM
Compound: COc1ccc(-c2noc(C(=O)NCCNC(=O)c3cccnc3)n2)cc1 [B1866]

IC50 (H322): 0.03 µM
Compound: CCc1nnc2sc(-c3ccc(NC(=O)c4cccnc4)cc3)nn12 [B1485]

IC50 (H1115): < 3.1 µM | IC50 (H661): < 1 µM | IC50 (H322): 1 µM
Compound: CCc1ccc2oc(-c3ccc(CNC(=O)c4cccnc4)cc3)nc2c1 [Drug3, N-(4-(5-ethylbenzo[d]oxazol-2-yl)benzyl)nicotinamide]

IC50 (H322): 12.5 µM
Compound: O=C(NCCNC(=O)c1nc(-c2ccc(Cl)cc2)no1)c1cccnc1 [B1856]

IC50 (H322): 6.25 µM
Compound: COC(=O)c1ccc(CCNC(=O)c2ccc3nccn3c2)cc1 [B1531]

IC50 (H322): 3.1 µM
Compound: O=C(NCc1ccc(S(=O)(=O)N2CCCCC2)cc1)c1cccnc1 [B1981]

Mouse(%) parent compound remaining [1]: 3.189 ± 1.078% | Human(%) parent compound remaining [2]: 0.101 ± 0.028%
Compound: O=C1CC2(CCCC2)CC(=O)N1CCCCN1CCN(c2ncccn2)CC1 [Buspirone, reference compound]

IC50 (H322): 0.3 µM
Compound: Cn1/c(=N/NC(=O)/C=C/c2cccnc2)sc2ccccc21 [B1983]

IC50 (H322): 12.5 µM
Compound: Cc1nccn1-c1ccc(CNC(=O)c2cccnc2)cc1 [B1967]

IC50 (H322): 12 µM
Compound: CCN(CC)Cc1ccc(CNC(=O)c2cccnc2)cc1 [B1982]

IC50 (H322): 10 µM
Compound: O=C(/C=C/c1cccnc1)N1CCN(Cc2csc(-c3ccco3)n2)CC1 [B1976]

IC50 (H322): 10 µM
Compound: O=C(NCCNC(=O)c1ccc2ccccc2n1)c1cccnc1 [B1872]

IC50 (H322): 1.2 µM
Compound: O=C(/C=C/c1cccnc1)NCCCN1CCc2ccccc21 [B1975]

IC50 (H322): 5 µM
Compound: O=C(NCCNC(=O)c1nc2ccccc2s1)c1cccnc1 [B1873]

IC50 (H322): 12.5 µM
Compound: O=C(NCCNC(=O)c1nc(-c2cccs2)no1)c1cccnc1 [B1863]

IC50 (H322): 10 µM
Compound: Cc1ccc(-c2noc(C(=O)NCCNC(=O)c3cccnc3)n2)cc1 [B1857]

IC50 (H322): 0.2 µM
Compound: CC(C)c1cc(C(F)(F)F)n2nc([C@H]3CCN(C(=O)/C=C/c4cccnc4)C3)cc2n1 [B1964]

IC50 (H322): 0.39 µM
Compound: O=C(Nc1ccc2c(c1)CN(C(=O)/C=C/c1cccnc1)CC2)c1ccncc1 [B1963]

IC50 (H322): 1.56 µM
Compound: O=C(Nc1ccc(-c2nn3cnnc3s2)cc1)c1cccnc1 [B1523]

IC50 (H322): 12.5 µM
Compound: Cc1ccc(-c2nc3cc(NC(=O)c4cccnc4)ccc3o2)cc1C [B1716]

IC50 (H322): 1.2 µM
Compound: O=C(NCc1ccc(N2CCCCC2)cc1)c1cccnc1 [B1978]

IC50 (H322): 0.78 µM
Compound: O=C(NCc1ccc(OCc2ccccn2)cc1)c1cccnc1 [B1979]

IC50 (H322): 6.25 µM
Compound: O=C(NCc1ccc(S(=O)(=O)N2CCOCC2)cc1)c1cccnc1 [B1977]

IC50 (H322): 0.05 µM
Compound: O=C(Nc1ccc(C(=O)c2cc3ccccc3o2)cc1)c1cccnc1 [B1484]
